Format in all cases: functional
Experiment [1] has as its system SF-295. The experiment in a line: Growth inhibition of human SF295 cells assessed as cell growth at 100 uM incubated for 48 hrs by sulforhodamine B assay relative to control. The settings on record: SF-295, 48 h, read-out: Activity. (In general: In SRB staining, fixed cells bind dye roughly in proportion to their protein.)
Experiment [2] concerns HOP-92. The experiment in a line: Growth inhibition of human HOP92 cells assessed as cell growth at 1 uM incubated for 48 hrs by sulforhodamine B assay relative to control. The settings on record: HOP-92, 48 h, read-out: Activity.
Experiment [3] deals with BT-549. In words: Growth inhibition of human BT549 cells assessed as cell growth at 100 uM incubated for 48 hrs by sulforhodamine B assay relative to control. The settings on record: BT-549, 48 h, read-out: Activity.
In experiment [4] the test system is MCF7. The experiment in a line: Growth inhibition of human MCF7 cells assessed as cell growth at 0.1 uM incubated for 48 hrs by sulforhodamine B assay relative to control. The settings on record: MCF7, 48 h, read-out: Activity.
The next experiment concerns TK-10. In words: Growth inhibition of human TK10 cells assessed as cell growth at 0.01 uM incubated for 48 hrs by sulforhodamine B assay relative to control. The settings on record: TK-10, 48 h, read-out: Activity.
The subject of experiment [5] is HOP-62. The experiment in a line: Growth inhibition of human HOP62 cells assessed as cell growth at 100 uM incubated for 48 hrs by sulforhodamine B assay relative to control. The settings on record: HOP-62, 48 h, read-out: Activity.
The test system of the next experiment is EKVX. In words: Growth inhibition of human EKVX cells assessed as cell growth at 10 uM incubated for 48 hrs by sulforhodamine B assay relative to control. The settings on record: read-out: Activity.
Experiment [6] relates to UACC-62. In words: Growth inhibition of human UACC62 cells assessed as cell growth at 1 uM incubated for 48 hrs by sulforhodamine B assay relative to control. The settings on record: UACC-62, 48 h, read-out: Activity.
The test system of another experiment is PC-3. In words: Growth inhibition of human PC3 cells assessed as cell growth at 0.01 uM incubated for 48 hrs by sulforhodamine B assay relative to control. The settings on record: PC-3, 48 h, read-out: Activity.
The test system of another experiment is RPMI-8226. The experiment in a line: Growth inhibition of human RPMI8226 cells assessed as cell growth at 100 uM incubated for 48 hrs by sulforhodamine B assay relative to control. The settings on record: RPMI-8226, 48 h, read-out: Activity.
Experiment [7] relates to SF-268. The experiment in a line: Growth inhibition of human SF268 cells assessed as cell growth at 0.1 uM incubated for 48 hrs by sulforhodamine B assay relative to control. The settings on record: SF-268, 48 h, read-out: Activity.
The next experiment relates to HCT-15. The experiment in a line: Growth inhibition of human HCT15 cells assessed as cell growth at 0.1 uM incubated for 48 hrs by sulforhodamine B assay relative to control. The settings on record: HCT-15, 48 h, read-out: Activity.
In experiment [8] the test system is UACC-62. In words: Growth inhibition of human UACC62 cells assessed as cell growth at 0.01 uM incubated for 48 hrs by sulforhodamine B assay relative to control. The settings on record: UACC-62, 48 h, read-out: Activity.
A further experiment concerns SK-OV-3. In words: Growth inhibition of human SKOV3 cells assessed as cell growth at 0.01 uM incubated for 48 hrs by sulforhodamine B assay relative to control. The settings on record: SK-OV-3, 48 h, read-out: Activity.
For another experiment, the system named is KM12. The experiment in a line: Growth inhibition of human KM12 cells assessed as cell growth at 10 uM incubated for 48 hrs by sulforhodamine B assay relative to control. The settings on record: KM12, 48 h, read-out: Activity.
Experiment [9] relates to SW-620. The experiment in a line: Growth inhibition of human SW620 cells assessed as cell growth at 1 uM incubated for 48 hrs by sulforhodamine B assay relative to control. The settings on record: SW-620, 48 h, read-out: Activity.
For another experiment, the system named is SF-539. In words: Growth inhibition of human SF539 cells assessed as cell growth at 100 uM incubated for 48 hrs by sulforhodamine B assay relative to control. The settings on record: SF-539, 48 h, read-out: Activity.
For the next experiment, the system named is HCC 2998. The experiment in a line: Growth inhibition of human HCC2998 cells assessed as cell growth at 0.003 uM incubated for 48 hrs by sulforhodamine B assay relative to control. The settings on record: HCC 2998, 48 h, read-out: Activity.
Experiment [10] relates to SW-620. In words: Growth inhibition of human SW620 cells assessed as cell growth at 3 uM incubated for 48 hrs by sulforhodamine B assay relative to control. The settings on record: SW-620, 48 h, read-out: Activity.
In experiment [11] the test system is HOP-62. In words: Growth inhibition of human HOP62 cells assessed as cell growth at 0.003 uM incubated for 48 hrs by sulforhodamine B assay relative to control. The settings on record: HOP-62, 48 h, read-out: Activity.
Another experiment has as its system OVCAR-4. The experiment in a line: Growth inhibition of human OVCAR4 cells assessed as cell growth at 0.03 uM incubated for 48 hrs by sulforhodamine B assay relative to control. The settings on record: OVCAR-4, 48 h, read-out: Activity.
Experiment [12] relates to SF-295. In words: Growth inhibition of human SF295 cells assessed as cell growth at 0.3 uM incubated for 48 hrs by sulforhodamine B assay relative to control. The settings on record: SF-295, 48 h, read-out: Activity.
Experiment [13] deals with BT-549. In words: Growth inhibition of human BT549 cells assessed as cell growth at 0.03 uM incubated for 48 hrs by sulforhodamine B assay relative to control. The settings on record: BT-549, 48 h, read-out: Activity.
Experiment [14] has as its system HOP-92. The experiment in a line: Growth inhibition of human HOP92 cells assessed as cell growth at 30 uM incubated for 48 hrs by sulforhodamine B assay relative to control. The settings on record: HOP-92, 48 h, read-out: Activity.
In the next experiment the test system is SR. The experiment in a line: Growth inhibition of human SR cells assessed as cell growth at 3 uM incubated for 48 hrs by sulforhodamine B assay relative to control. The settings on record: read-out: Activity.
Experiment [15] has as its system 786-0. In words: Growth inhibition of human 786-0 cells assessed as cell growth at 30 uM incubated for 48 hrs by sulforhodamine B assay relative to control. The settings on record: 786-0, 48 h, read-out: Activity.
In a further experiment the test system is NCI/ADR-RES. In words: Growth inhibition of human NCI/ADR-RES cells assessed as cell growth at 0.3 uM incubated for 48 hrs by sulforhodamine B assay relative to control. The settings on record: read-out: Activity.
Experiment [16] concerns 786-0. In words: Growth inhibition of human 786-0 cells assessed as cell growth at 0.03 uM incubated for 48 hrs by sulforhodamine B assay relative to control. The settings on record: 786-0, 48 h, read-out: Activity.
Experiment [17] deals with SF-268. In words: Growth inhibition of human SF268 cells assessed as cell growth at 0.3 uM incubated for 48 hrs by sulforhodamine B assay relative to control. The settings on record: SF-268, 48 h, read-out: Activity.
A further experiment deals with UACC-257. In words: Growth inhibition of human UACC257 cells assessed as cell growth at 0.3 uM incubated for 48 hrs by sulforhodamine B assay relative to control. The settings on record: UACC-257, 48 h, read-out: Activity.
In experiment [18] the test system is MCF7. The experiment in a line: Growth inhibition of human MCF7 cells assessed as cell growth at 30 uM incubated for 48 hrs by sulforhodamine B assay relative to control. The settings on record: MCF7, 48 h, read-out: Activity.
The next experiment deals with HT-29. In words: Growth inhibition of human HT-29 cells assessed as cell growth at 3 uM incubated for 48 hrs by sulforhodamine B assay relative to control. The settings on record: HT-29, 48 h, read-out: Activity.
The next experiment concerns NCI-H460. The experiment in a line: Growth inhibition of human NCI-H460 cells assessed as cell growth at 3 uM incubated for 48 hrs by sulforhodamine B assay relative to control. The settings on record: NCI-H460, 48 h, read-out: Activity.
Experiment [19] relates to NCI-H322M. The experiment in a line: Growth inhibition of human NCI-H322M cells assessed as cell growth at 3 uM incubated for 48 hrs by sulforhodamine B assay relative to control. The settings on record: read-out: Activity.
The subject of experiment [20] is NCI-H322M. In words: Growth inhibition of human NCI-H322M cells assessed as cell growth at 30 uM incubated for 48 hrs by sulforhodamine B assay relative to control. The settings on record: read-out: Activity.
Experiment [21] deals with 786-0. The experiment in a line: Growth inhibition of human 786-0 cells assessed as cell growth at 0.003 uM incubated for 48 hrs by sulforhodamine B assay relative to control. The settings on record: 786-0, 48 h, read-out: Activity.

With `COc1cc2cc(Oc3ccc(NC(=O)Nc4cc(C(F)(F)F)cc(C(F)(F)F)c4)cc3)c(C)nc2cc1OC`, the growth at 100 µM in the experiment on SF-295 [1] is -84%; with BT-549 [3] it was -61%; in the experiment with HOP-62 [5], -92%; in the experiment on RPMI-8226 it was -34%; in the experiment on SF-539, -74%. In addition, the growth at 1 µM with HOP-92 [2] amounted to 54%; in the experiment with UACC-62 [6], 35%; in the experiment on SW-620 [9], 81%. Moreover, the values for the growth at 0.1 µM with MCF7 [4], with SF-268 [7] and in the experiment with HCT-15 were 92%, 92% and 94%, respectively. In addition, the growth at 0.01 µM with TK-10 was found to be 96%; in the experiment with PC-3, 92%; in the experiment with UACC-62 [8], 90%; with SK-OV-3, 91%. Moreover, the values for the growth at 10 µM with EKVX and with KM12 were -55% and -75%, respectively.

In the case of `Cc1nc2cc(O)c(O)cc2cc1Oc1ccc(NC(=O)Nc2ccc(Cl)c(Cl)c2)cc1`, the values for the growth at 0.003 µM in the experiment on HCC 2998, with HOP-62 [11] and in the experiment with 786-0 [21] were 99%, 108% and 98%, respectively. Further, the growth at 3 µM is 57% in the experiment on SW-620 [10]; 28% in the experiment on SR; 98% in the experiment on HT-29; 96% with NCI-H460; 105% in the experiment with NCI-H322M [19]. In addition, the growth at 0.03 µM with OVCAR-4 amounted to 98%; in the experiment on BT-549 [13], 94%; with 786-0 [16], 95%. Besides, the growth at 0.3 µM in the experiment on SF-295 [12] came to 89%; with NCI/ADR-RES, 97%; in the experiment with SF-268 [17], 107%; in the experiment on UACC-257, 92%. The growth at 30 µM in the experiment with HOP-92 [14] is -20%; in the experiment with 786-0 [15], -31%; with MCF7 [18], 1%; in the experiment on NCI-H322M [20] it was 19%.

For the molecule `COc1cc2cc(Oc3ccc(NC(=O)Nc4ccc(Cl)c(Cl)c4)cc3)c(C)nc2cc1OC`, the growth at 100 µM in the experiment with SF-295 [1] is -56%; in the experiment with BT-549 [3] it was -72%; with HOP-62 [5], -100%; with RPMI-8226, -47%; in the experiment with SF-539, -54%. Also, the figures for the growth at 1 µM in the experiment with HOP-92 [2], with UACC-62 [6] and in the experiment on SW-620 [9] were 91%, 77% and 107%, respectively. Moreover, the growth at 0.1 µM with MCF7 [4] was determined as 92%; with SF-268 [7], 109%; in the experiment on HCT-15 it was 102%. In addition, the growth at 0.01 µM in the experiment with TK-10 came out at 106%; in the experiment with PC-3, 96%; in the experiment on UACC-62 [8], 94%; in the experiment on SK-OV-3, 103%. For the same molecule, the figures for the growth at 10 µM with EKVX and with KM12 were -2% and 8%, respectively.

Turning to `COc1cc2cc(Oc3ccc(NC(=O)Nc4ccc(Cl)c(C(F)(F)F)c4)cc3)c(C)nc2cc1OC`, the growth at 0.003 µM with HCC 2998 stood at 102%; with HOP-62 [11], 99%; in the experiment on 786-0 [21] it was 97%. Moreover, the growth at 3 µM with SW-620 [10] was 15%; with SR, -9%; with HT-29 it was 8%; with NCI-H460, 3%; with NCI-H322M [19], 35%. In addition, the growth at 0.03 µM in the experiment with OVCAR-4 was 96%; in the experiment on BT-549 [13], 83%; in the experiment on 786-0 [16], 83%. The growth at 0.3 µM was found to be 93% with SF-295 [12], 94% in the experiment with NCI/ADR-RES, 100% in the experiment on SF-268 [17] and 83% in the experiment on UACC-257. Also, the growth at 30 µM with HOP-92 [14] is -79%; with 786-0 [15] it was -71%; in the experiment on MCF7 [18], -79%; in the experiment on NCI-H322M [20], -86%.

The record behind these values is ChEMBL document CHEMBL3994622, “Design and synthesis of new RAF kinase-inhibiting antiproliferative quinoline derivatives. Part 2: Diarylurea derivatives” (Eur J Med Chem, 2017).
